From publication PMC8686256, “DZNep promotes mouse bone defect healing via enhancing both osteogenesis and osteoclastogenesis” (Stem Cell Research & Therapy, 2021)

Tests used:
BMMs = test: Bone resorption assay on hydroxyapatite-coated Osteo Assay plates; type: cell-based, mouse; details: 25 nM, compared with the control group
Method: To explore the effect of DZNep on the function of osteoclast, BMMs on complete α-MEM were seeded at the density of 1 × 10^4 cells/well, in triplicate, on the Osteo Assay Surface plates (Corning, NY, USA). After thirty-six hours, the culture medium was replaced by complete α-MEM, with RANKL (50 ng/mL), and various doses of DZNep (control, 6.25, 12.5, and 25 nM). For EZH2 gene knockdown studies, the cells were transfected with virus constructed of different EZH2 short hairpin RNA (shRNA) and negative control shRNA by mixed with polybrene (final concentration of 10ug/ml) for 48 h. The transfection mixture was then replaced by complete α-MEM added with puromycin for 24 h, and the survived BMMs were seeded into a 96-well plate, in triplicate, at a density of 1 × 10^4 cells/well. The medium needs to be constantly replaced until the osteoclast had matured for 1 day. For Foxc1 inhibition experiment, the cells were separately transfected with negative control siRNA, negative control siRNA with DZNep, and Foxc1 small interfering RNA (siRNA) with DZNep and by mixed with transfection reagent and osteoclast culture medium. The transfection mixture was then replaced every 2 days until the osteoclast had been observed for 2 days. […] The total area of resorption was photographed and then calculated by ImageJ software (NIH, Bethesda, MD, USA).

[1] = test system: osteoclast-related genes in BMMs; test: qPCR of osteoclast-related genes in BMMs; type: cell-based, mouse
Method: BMMs were cultured in 6-well plates at the density of 2 × 10^5 cells/well in α-MEM supplemented with M-CSF (30 ng/ml), RANKL (50 ng/ml). The cells were then treated with or without 25 nM DZNep for 0, 1, 3, 5 days, or with various concentrations of DZNEP (0, 6.25, 25 nM) for 5 days, or with negative control siRNA, negative control siRNA with DZNep, and Foxc1 small interfering RNA (siRNA) with DZNep for 5 days. Once the culture completed, the Axygen RNA Miniprep Kit (Axygen, Union City, CA, USA) was used to extract the total RNA. BMSC were seeded in a 6-well plate at a number of 4 × 10^5 cells/well and treated with 0, 25, 50, 100 nM of DZNep combined with osteoblast-cultured medium for 24 h, or with or without 100 nM DZNep combined with osteoblast-cultured medium for 0 and 7 days, or with negative control siRNA, negative control siRNA with DZNep, and Wnt4 small interfering RNA (siRNA) with DZNep combined with osteoblast-cultured medium for 7 days. Once the culture completed, the Axygen RNA Miniprep Kit (Axygen, Union City, CA, USA) was used to extract the total RNA. After reverse transcription to obtain cDNA from the RNA template by using the Prime Script RT reagent Kit was finished. The real-time PCR assay was subsequently performed by using the SYBR® Premix Ex Taq™ II on an ABI 7500 Sequencing Detection System (Applied Biosystems, Foster City, CA). Specifically, total volume of 10 μl liquid consisted by 5 μl of SYBR® Premix Ex Taq™ II, 1 μl of diluted cDNA, 0.4 μl of mixed forward and reverse primer, and 3.6 μl of ddH2O was added into each hole of 384 PCR plate. Conditions of the 40 cycles were: 95 °C for 5 s and 60 °C for 30 s. The melting curves and reverse transcription PCR (RT-PCR) were the methods to detect the specificity of amplification product. Each target’s quantity, run in triplicate, was normalized to Actin Beta (Actb). […]

SMILES: Nc1nccc2c1ncn2C1C=C(CO)C(O)C1O (stereo not shown) [DZNep, 3-Deazaneplanocin]
- bone resorption area (BMMs): more than 30%
- expression of Trap, Ctsk, Atp6v0d2 (qPCR) ([1]; 25 nM, 0, 1, 3, 5 days): significantly enhanced in a time-dependent manner
- mRNA expression of Foxc1 in BMMs ([1]; RANKL and DZNep treatment for 5 days): upregulated
- expression of Calcr, c-FOS, Nfatc1, Trap, Ctsk, Atp6v0d2 (qPCR) ([1]; indicated DZNep concentrations, 5 days): upregulated in a dose-dependent manner
